Assay results taken from article PMC10375898 (2023).

Legend:
[1] = system: r(CUG)10 (RNA, repeat) CUGCUGCUGCUGCUGCUGCUGCUGCUGCUG; experiment: competitive Chem-CLIP; settings: competes with 50 μM of 1; 0 to 500 μM
[2] = system: 5'-(GACAGCUGCUGUC)2-3' duplex (single 5'CUG/3'GUC) (RNA, mismatch bulge abasic) GACAGCUGCUGUC; experiment: To-Pro-1 dye displacement (fluorescence); settings: Na+ 200 mM NaCl, 8 mM NaH2PO4; To-Pro-1 (100 nM) displaced; Kd from competitive fit (Ki)
[3] = system: 5'-(GACAGCUGCUGUC)2-3' duplex (single 5'CUG/3'GUC) (RNA, mismatch bulge abasic) GACAGCUGCUGUC; experiment: NMR (WaterLOGSY, 1D 1H imino and aromatic); settings: 10 mM Na2HPO4/NaH2PO4, pH 6.0, 0.05 mM EDTA
[4] = system: 5'-(GACAGCUGCUGUC)2-3' duplex (single 5'CUG/3'GUC) (RNA, mismatch bulge abasic) GACAGCUGCUGUC; experiment: fluorescence titration; settings: Na+ 200 mM NaCl; 8 mM NaH2PO4, pH 7.0, 1 mM EDTA, 40 µg/mL BSA, room temperature; 100 nM dye
[5] = system: r(CUG)10 (RNA, repeat) CUGCUGCUGCUGCUGCUGCUGCUGCUGCUG; experiment: in vitro Chem-CLIP (photo-cross-linking pull-down); settings: covalent; 26 ± 7% pulled down at 100 μM
[6] = system: r(CUG)8 with GAAA hairpin loop (RNA, repeat) CCGCUGCUGCUGCUGCGAAAGCUGCUGCUGCUGCGG; experiment: in vitro Chem-CLIP (photo-cross-linking pull-down); settings: covalent; 100 μM

SMILES	binding [1]	Kd [2] [nM]	binding [3]	Kd [4] [nM]	binding [5]	binding [6]
CCC(=O)NC1=Nc2cccc3cccc(c23)N1	yes	1400 ± 300	yes	–	–	–
C[n+]1c(C=C2C=CN(CCC[N+](C)(C)C)c3ccccc32)sc2ccccc21	–	–	–	31 ± 2	–	–
C#CCCC1(CCC(=O)NC2=Nc3cccc4cccc(c34)N2)N=N1	–	1200 ± 200	–	–	yes	yes
